# Key:
# [1] = test system: HCT-116-derived colonospheres; assay: Formation of HCT-116-derived colonospheres (CSC tumorspheres); assay type: cell-based; conditions: Homo sapiens, HCT-116; @5 µM (footnote d); read-out: Inhibition of tumorsphere formation (%) HCT-116
# Protocol: (BD Biosciences, Franklin Lakes, NJ, USA). All cells were maintained at 37 °C in a humidified incubator in an atmosphere of 5% CO2, and passaged every 2–3 days.
# Additionally, they were cultured using RPMI media (Gibco/Life Technologies; Grand […]
# Colonospheres, mamospheres and colony formation unit assays. 30.000 cells per well of MCF-7 cells (mamos pheres), HCT-116 cells (colonospheres) and CD34+ cells from patients (colony formation units) were seeded in serum free non- adherent medium or […]
# MethoCult (Stem Cell). […]
# [2] = Viability of non-tumor fibroblast cell line; assay type: cell-based; conditions: human, IMR90 non-tumor fibroblasts; @5 µM
# Protocol: (§1) The test compound was diluted in PBS.
# (§2) Viability (%) tum orsphere form ation (%)
# [3] = test system: IMR90 fibroblasts; assay: Viability of non-tumor fibroblast cell line; assay type: cell-based; conditions: IMR90 fibroblasts, 5 μM
# Protocol: as §1, §2
# [4] = test system: primary HSCs from AML patients; assay: CD34+ liquid HSC short-term culture, AML patients; assay type: cell-based; conditions: Homo sapiens
# Protocol: (§3) Considering the inhibitory capacity of UCM-13369 on AML cell lines (shown in Figure 3A), the therapeutic potential was assessed in primary CD34+ cells from AML patients. Two ex vivo models were used from AML patients and healthy donors: CD34+ liquid HSC (hematopoietic stem cell) culture as a short-term model and CFU-E (colony-forming unit–erythroid) as a midterm model.
# (§4) The test compound was diluted in PBS. […]
# (§5) Primary cells. 1x10^6/mL total mononuclear bone marrow cells (as source of CD34+ HSCs) of healthy donors and AML patients were used. They were cultured using Stem SpanTM supplement with pencillin/streptomycin (500 U/ml), TPO (10 µg/mL), SCF (10 µg/mL), FLT3 (10 µg/mL), IL-6 (10 µg/mL) and IL-3 (10 µg/mL). After 24 h fresh medium was added. After 72 h in maintenance cells were ready to start the assays. All cells wer e maintained at 37 °C in a humidified incubator in an atmosphere of 5% CO2. […]
# [5] = test system: primary HSCs from healthy donors; assay: CD34+ liquid HSC short-term culture, healthy donors; assay type: cell-based; conditions: Homo sapiens
# Protocol: as §3, §4, §5
# [6] = test system: NPM1; assay: qPCR of NPM1 expression in OCI-AML3 cells; assay type: cell-based; conditions: OCI-AML3, 10 μM
# Excerpt: We next studied the impact of UCM-13369 in the genes and/or expression levels of NPM1 and NPM1 C+ pathway components (Figure 4A), including the positive regulation of c-Myc[34] and the negative regulation of FBXW7 and the pro-apoptotic CASP8.[35] […] The inhibition of NPM1 was also observed in MOLM13 cells expressing WT NPM1 (Figure S1B). […]
# quantitative real-time PCR (qPCR), or were sorted using a FACS BD INFL UX cell sorter (BD Biosciences, Franklin Lakes, NJ, USA). All cells were maintained at 37 °C in a humidified incubator in an atmosphere of 5% CO2, and passaged every 2–3 days.
# Additionally, they were cultured using RPMI media (Gibco/Life Technologies; Grand Island, NY, USA) supplemented with 10% fetal bovine serum (FBS) (Hyclone) and […]
# Primary cells. […] After 72 h in maintenance cells were ready to start the assays. […]
# Colonospheres, mamospheres and colony formation unit assays. […] After 10 days (mamospheres and colonospheres) and 14 days (CFU-E) we quantified t he number of colonies/spheres and number of cell s (CFU-E) by […]
# RNA and DNA extraction and quantitative PCR (qPCR). […] Gene expression was studied from the extracted RNA, processed into cDNA to quantify the expression of NPM1 and c-MYC. […]
# The relative amount of targets was determined by the comparative Ct method.
# Western blot. […] Lysates wer e cl ear ed by centrifugation (14,000g, 4 °C, 30 min), protein concentration determined by Bradford
# [7] = In vivo pharmacokinetic study; set-up: species or system mouse; conditions: single intraperitoneal administration, 25 mg/kg, up to 6 h
# Protocol: Based on the encouraging results obtained in ex vivo models of AML, we further assessed the therapeutic potential of the new NPM1 inhibitor in vivo. Prior to the evaluation of the compound in an animal model of AML, in vivo pharmacokinetic studies were addressed. Following a single intraperitoneal administration of UCM-13369 at a dose of 25 mg/kg, levels of 200–600 μg/L were detected in mouse peripheral blood up to 6 h (Figure 6A). Plasma protein binding of the compound in mouse serum was measured using an equilibrium dialysis assay, indicating a bound fraction of 83 ± 1%. Next, the efficacy of the compound was evaluated in immunodeficient mice after injection of OCI-AML3-ffLuc-GFP cells as an AML animal model.
# For the pharmacokinetic study of UCM-13369, after injecting 25 mg/kg dose of the compound, samples of blood were withdrawn at different times (30, 60, 120, 240, 360 min), and the presence of tested compound was analyzed by HPLC-MS. The area of the molecular peak allowed us to calculate the concentration of the compound present in mice serum at each time.
structure (smiles),measurement,setting,value
"COc1ccc(C2Cc3[nH]c4ccccc4c3C(CCNCC3CC3)C2N)cc1 (stereo not shown) [4b, 4-{2-[(Cyclopropylmethyl)amino]ethyl}-2-(4-methoxyphenyl)-2,3,4,9-tetrahydro-1H-carbazol-3-amine]",inhibition at 5 µM,[1],100%
same,"viability at 48 h, 5 µM",[2],100%
same,Toxicity in nontumor cells (in words),[3],not toxic
same,IC50,[4],1.88 µM
same,IC50,[5],6.4 µM
same,"NPM1 expression, dot plot (in words)",[6],decreased NPM1 expression
same,Levels in mouse peripheral blood,[7],200 to 600 ng/mL
